Values after ≈ are worked out from the molar mass of the structure shown. Where two headings read alike, the source gives them in different places.
Assays:
urease enzyme = urease enzyme (Canavalia ensiformis, UniProt P07374); assay: biochemical; type: biochemical; conditions: for inhibition at 50 µg/mL: read-out: Percentage inhibition at 50 ug/mL; for inhibition at 100 µg/mL: read-out: Percentage inhibition at 100 ug/mL
Method: Antiurease activity of the synthesized compounds was determined by using the modified phenol-hypochlorite method. Varying concentrations were used to prepare the urease inhibition curve of Thiourea (a known inhibitor of Urease) in the reaction mixture. Phosphate buffer solution of pH 7 containing 1 unit of enzyme was added about 200 µl in the test tube which was followed by the addition of 230 µl of phosphate buffer and 20 µl of thiourea from a scrupulous stock solution for the particular concentration of thiourea in the reaction mixture respectively. Test sample solutions were added instead of thiourea solution in case of test samples. The reaction mixture were mixed and incubated at 25°C for 5 min. 400 µl of urea stock (20 mM) was added in each test tube. In order to allow the action of urease on urea, all the test tubes were incubated at 40°C.
Phenol hypochlorite reagent (1150 µl) was added after 10 min incubation at 40°C. Test tubes were again incubated at 56°C for 25 min. A blue coloured complex was formed in the reaction mixture. The samples were allowed to cool for 5 min and then their absorbance values were measured at 625 nm and the %age inhibition was calculated. Experiment was repeated three times to get the SD values.

[1] = Nitric oxide (NO) scavenging activity (sodium nitropruside / Griess reagent); conditions: for IC50: NO scavenging; for Percentage scavenging activity at 50 ug/ml / Percentage scavenging activity at 100 ug/ml: NO
Method: Solutions of known concentration were prepared by dissolving the synthesized compounds in appropriate solvents. A mixture of sample solution (20 µl), 10 mM sodium nitropruside solution (200 µl) and phosphate buffer of 7.4 pH (1780 µl) was taken in a dry test tube and the mixture was incubated at 37°C for 2 hours. 200 µl Griess reagent (0.3% Sulphanilic acid in glacial acetic acid, 0.1% Naphthyl ethylene diamine HCL (NED): Mixed equal volume of both solutions just before use) was added after the incubation period is over. After 20 min keeping the solution at room temperature, its absorbance at 528 nm was measured. Each sample was analyzed in triplicate. Positive control of any known antioxidant and control of all samples were run in parallel. Use of negative control was to calibrate the instrument. Sample blanks were also prepared in case if the samples were coloured. Correction in the absorbance values was made by subtracting the sample blank reading from the sample reading.

Bacillus subtillus = assay: Antibacterial activity, disc diffusion method; type: cell-based; conditions: for inhibition at 50 µg/mL / IC50 / inhibition at 100 µg/mL: Bacillus; for inhibition at 50 µg/mL: read-out: Bacillus subtillus 50 ug/ml (percentage inhibition); for inhibition at 100 µg/mL: read-out: Bacillus subtillus 100 ug/ml (percentage inhibition)
Description: (§1) Disc diffusion method was adopted to test the antibacterial activity of synthesized compounds 2a-10 against […] different bacterial strains. Ampiciline was used as positive control to check antibacterial activity of synthesized compounds. The bacterial strains employed were: Escherichia coli, Bacillus subtillus, Shigella flexneri, Staphylococcus aureus, Pseudomonas aeroginosa and Salmonella typhi.
(§2) Disc diffusion method was used for the determination of antibacterial activity. synthetic organic compounds were examined to evaluate their antibacterial potential against four different strains of bacteria i.e. Staphlococcus aureus (Gram + ive), Pseudomonas- aeroginosa (Gram−ive) and Escherichia coli (Gram−ive), Bacillus subtilis (Gram + ive), Salmonella typhi (Gram−ive) and Shigella flexneri (−ive). The synthetic organic compounds were dissolved in an appropriate solvent to get the solution of known concentration (5 µg/µl or 10 µg/µl). In order to prepare discs of different potencies known volume of extract/synthetic organic compound solution was applied on the discs, air dried and used. After preparation of the sterilized nutrient agar and nutrient broth medium, the sterilized nutrient agar medium was poured under aseptic conditions into sterile glass petri dishes/plates. A known volume of bacterial growth culture can also be poured on the surface of agar medium solidified in petri dishes. After inoculation petri plates were kept at room temperature for 15–30 minutes so that the poured medium is adsorbed. All the discs, including test sample, +ive and –ve controls were placed onto the inoculated nutrient agar medium solidified in petri dishes with the help of sterile forceps and incubated the petri plates at 37°C±2°C for 16–24 hours. Zone of inhibition was measured in mm using ordinary scale. Experiment was repeated three times to get the SD values.

Staphylococcus aureus = assay: Antibacterial activity, disc diffusion method; type: cell-based; conditions: for inhibition at 40 µg/mL / inhibition at 100 µg/mL / IC50: Staphylococcus aureus; for inhibition at 40 µg/mL: read-out: Staphylococcus aureus 40 ug/ml (percentage inhibition); for inhibition at 100 µg/mL: read-out: Staphylococcus aureus 100 ug/ml (percentage inhibition)
Description: as §1, §2

[2] = read-out: Staphylococcus aureus IC50 ug/ml
[3] = read-out: Bacillus subtillus IC50 ug/ml

Sequence of urease enzyme (P07374 whole entry, looked up): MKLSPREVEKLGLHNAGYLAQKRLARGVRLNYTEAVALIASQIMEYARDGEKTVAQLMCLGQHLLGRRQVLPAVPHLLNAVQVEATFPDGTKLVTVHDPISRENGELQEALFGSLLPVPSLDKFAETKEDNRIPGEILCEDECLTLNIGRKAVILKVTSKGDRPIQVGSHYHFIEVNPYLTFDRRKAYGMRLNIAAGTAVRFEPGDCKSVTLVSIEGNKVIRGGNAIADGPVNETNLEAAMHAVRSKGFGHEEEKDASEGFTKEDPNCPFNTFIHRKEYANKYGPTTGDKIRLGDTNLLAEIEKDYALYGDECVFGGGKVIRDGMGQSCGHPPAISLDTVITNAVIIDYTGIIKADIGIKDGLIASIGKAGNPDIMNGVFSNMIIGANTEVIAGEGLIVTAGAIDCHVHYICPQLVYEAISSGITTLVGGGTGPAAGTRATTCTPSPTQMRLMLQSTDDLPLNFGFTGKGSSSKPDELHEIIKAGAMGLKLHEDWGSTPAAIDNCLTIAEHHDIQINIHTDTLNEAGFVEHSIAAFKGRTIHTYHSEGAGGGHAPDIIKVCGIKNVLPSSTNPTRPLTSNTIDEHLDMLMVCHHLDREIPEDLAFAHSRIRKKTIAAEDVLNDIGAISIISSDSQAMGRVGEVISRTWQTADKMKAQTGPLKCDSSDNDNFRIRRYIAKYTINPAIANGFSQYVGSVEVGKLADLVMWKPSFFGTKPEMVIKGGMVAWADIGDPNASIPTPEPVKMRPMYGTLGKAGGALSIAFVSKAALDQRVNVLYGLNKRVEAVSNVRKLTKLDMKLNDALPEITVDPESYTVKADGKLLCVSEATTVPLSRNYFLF

Compound	IC50 [1] [µg/mL]	Percentage scavenging activity at 50 ug/ml [1] [%]	Percentage scavenging activity at 100 ug/ml [1] [%]	inhibition at 50 µg/mL (Bacillus subtillus; 50 ug/ml) [%]	inhibition at 40 µg/mL (Staphylococcus aureus) [%]	inhibition at 100 µg/mL (Staphylococcus aureus) [%]	IC50 (urease enzyme) [µM]	inhibition at 50 µg/mL (urease enzyme) [%]	inhibition at 100 µg/mL (urease enzyme) [%]	activity against Bacillus subtillus (in words) (Bacillus subtillus)	IC50 (Staphylococcus aureus; [2]) [µg/mL]	further results
2-bromo-4-methyl-N-(prop-2-ynyl)aniline [Compound 8b]	87.5	26.33±0.11	57.98±0.21									IC50 (urease enzyme; urease): 98.2 µg/mL; Percentage inhibition at 50 ug/mL (urease enzyme; urease): 27±0.45%; Percentage inhibition at 100 ug/mL (urease enzyme; urease): 50.83±0.265%; Bacillus subtillus 100 ug/ml (percentage inhibition) (Bacillus subtillus; 100 ug/ml): 43.8±0.35%; Staphylococcus aureus 40 ug/ml (percentage inhibition) (Staphylococcus aureus): 13.39±0.5%; Staphylococcus aureus 100 ug/ml (percentage inhibition) (Staphylococcus aureus): 36±0.8%
CC1(C)S[C@@H]2[C@H](NC(=O)[C@H](N)c3ccccc3)C(=O)N2[C@H]1C(=O)O [Ampicilline, reference compound]				9.9 ± 0.51	29.9 ± 0.59	73 ± 0.51						IC50 (Bacillus subtillus; read-out: Bacillus subtillus IC50): 81 µg/mL (≈ 232 µM); IC50 (Staphylococcus aureus; read-out: Staphylococcus aureus IC50): 76 µg/mL (≈ 218 µM)
C#CCOc1ccc(Br)cc1Cl [Compound 2a, 4-bromo-2-chloro-1-(prop-2-ynyloxy)benzene]	67.72 (≈ 276 µM)	35.67±0.09	76.09±0.12	42.4 ± 0.35	29.13 ± 0.12	51 ± 0.5	245	42.5 ± 0.7	82 ± 0.09	inactive	97.7 (≈ 398 µM)	melting point: 29 °C
C#CCOc1ccc(Cl)cc1Br [Compound 2b, 2-bromo-4-chloro-1-(prop-2-ynyloxy)benzene]	67.9 (≈ 277 µM)	39.67±0.09	68.44±0.16	40.37 ± 0.35	31.47 ± 0.19	56 ± 0.07	264	31.5 ± 0.22	81.07 ± 0.1	inactive	87.7 (≈ 357 µM)	inhibition at 100 µg/mL (Bacillus subtillus; 100 ug/ml): 39.3 ± 0.36%
C#CCOc1ccc(Br)cc1Br [Compound 2c, 2,4-dibromo-1-(prop-2-ynyloxy)benzene]	63.8 (≈ 220 µM)	39.67±0.09	77.03±0.11		31.47 ± 0.2	56 ± 0.1	242	36 ± 0.5	86.45 ± 0.07	batter activity	87.7 (≈ 302 µM)	inhibition at 100 µg/mL (Bacillus subtillus; 100 ug/ml): 55.01 ± 0.25%; IC50 (Bacillus subtillus; [3]): 83.8 µg/mL (≈ 289 µM); melting point: 157.95 °C
C#CCOc1ccc(C)cc1Br [Compound 2d, 2-bromo-4-methyl-1-(prop-2-ynyloxy)benzene]	74.1 (≈ 329 µM)	31.33±0.10	69.95±0.15	41.5 ± 0.3	27.7 ± 0.35	52 ± 0.607	298	30.3 ± 0.6	85.89 ± 0.07	potent antibacterial	95.9 (≈ 426 µM)	IC50 (Bacillus subtillus; [3]): 79.9 µg/mL (≈ 355 µM)
C#CCOc1ccc(F)cc1Br [Compound 2e, 2-bromo-4-fluoro-1-(prop-2-ynyloxy)benzene]	68.8 (≈ 300 µM)	33.33±0.1	77.5±0.11		31.99 ± 0.07	58 ± 0.9	271	40 ± 0.5	79.59 ± 0.11	inactive	85.1 (≈ 372 µM)	
C#CCOc1ccc(C(C)(C)c2ccc(OCC#C)cc2)cc1 [Compound 4a, 4,4′-(propane-2,2-diyl)bis((prop-2-ynyloxy)benzene)]	64.4 (≈ 212 µM)	40±0.09	74.53±0.13		29.1 ± 0.6	50 ± 0.2	205	37 ± 0.34	89.42 ± 0.05	inactive	97.7 (≈ 321 µM)	inhibition at 100 µg/mL (Bacillus subtillus; 100 ug/ml): 33.9 ± 0.45%; activity against Staphylococcus aureus (in words) (Staphylococcus aureus): moderate activity
C#CCOc1cccc2ccccc12 [Compound 6a, 1-(prop-2-ynyloxy)naphthalene]	83 (≈ 455 µM)	24.33±0.12	63.17±0.19		-1.85	10 ± 0.9	373	41.33 ± 0.41	65.3 ± 0.18			IC50 (Bacillus subtillus; [3]): 92.6 µg/mL (≈ 508 µM); activity against Staphylococcus aureus (in words) (Staphylococcus aureus): inactive
C#CCOc1ccc2ccccc2c1 [Compound 6b, 2-(prop-2-ynyloxy)naphthalene]	76.16 (≈ 418 µM)	33.33±0.1	65.19±0.18	39.06 ± 0.05	21.4 ± 0.4	51 ± 0.3		32 ± 0.38	41.9 ± 0.313		98.3 (≈ 539 µM)	urease inhibition activity (in words) (urease enzyme; 50 and 100 µg/ml tested): did not show any satisfactory results; inhibition at 100 µg/mL (Bacillus subtillus; 100 ug/ml): 57.8 ± 0.26%; IC50 (Bacillus subtillus; [3]): 79.2 µg/mL (≈ 435 µM)
C#CCNc1cccc2ccccc12 [Compound 8d, N-(prop-2-ynyl)naphthalen-1-amine]		7.67±0.13	38.38±0.32		5.85 ± 0.8	31 ± 0.2	506	43 ± 0.42	51.5 ± 0.26			nitric oxide scavenging activity (in words) [1]: did not show any significant results
NC(N)=S [Thiourea, reference compound]												IC50 (urease enzyme; urease): 23.3 µg/mL; Percentage inhibition at 20 ug/ml (urease enzyme; urease, 20 ug/ml (positive control)): 47.1±0.31%; Percentage inhibition at 40 ug/ml (urease enzyme; urease, 40 ug/ml (positive control)): 65±0.01%
O=C1O[C@H]([C@@H](O)CO)C(O)=C1O [Vit.C control, Ascorbic acid, reference compound]	50.43 (≈ 286 µM)	38.5±0.16	84.1±0.12									
N-(prop-2-ynyl)-4-(prop-2-ynyloxy)aniline [Compound 10]	78.1	30±0.10	65.5±0.18							batter activity		IC50 (urease enzyme; urease): 89.6 µg/mL; Percentage inhibition at 50 ug/mL (urease enzyme; urease): 25±0.45%; Percentage inhibition at 100 ug/mL (urease enzyme; urease): 56.5±0.234%; Bacillus subtillus IC50 (Bacillus subtillus): 98.5 µg/mL; Bacillus subtillus 50 ug/ml (percentage inhibition) (Bacillus subtillus; 50 ug/ml): 6.13±0.35%; Staphylococcus aureus IC50 (Staphylococcus aureus): 96.3 µg/mL; activity against Staphylococcus aureus (in words) (Staphylococcus aureus): moderate activity; Staphylococcus aureus 40 ug/ml (percentage inhibition) (Staphylococcus aureus): 24.4±0.11%; Staphylococcus aureus 100 ug/ml (percentage inhibition) (Staphylococcus aureus): 52±0.1%
